Results as given in ChEMBL document CHEMBL4665684, “Antibacterial and NF-κB Inhibitory Lumazine Peptides, Aspochalasin, γ-Butyrolactone Derivatives, and Cyclic Peptides from a Hawaiian Aspergillus flavipes” (J Nat Prod, 2020).
pIC50: −log10 of the molar value. Values after ≈ are worked out from the molar mass of the structure shown. Each block holds one compound with its values, some of them ahead of it. Active and inactive are the calls of the source. No cut-off for these calls is given here. Numbered stars: 1 amine (or outer) side, 2 acyl side, 3 side chain; on linkers, the order of the positions; unused ones are H or OH. Square brackets hold non-standard residues; d marks the D form. Peptide text beside a SMILES is read from it. X2 = CC(C)=CCc1cc([C@H](O)[C@H](N[*:1])C(=O)[*:2])ccc1O; X1 = O=C([C@@H](N[*:1])[C@@H](O)c1ccc(O)cc1)[*:2]

Key:
[1] = system: A2780; assay: Antiproliferative activity against human A2780 cells at 40 uM by SRB assay; assay type: functional, cell-based
[2] = Inhibition of TNFalpha-induced NFkappaB activation in HEK293 cells after 6 hrs by luciferase reporter gene assay; assay type: cell-based; settings: Homo sapiens, HEK293, 6 h
[3] = system: Staphylococcus aureus; assay: Antibacterial activity against Staphylococcus aureus ATCC 43300 at 80 ug/ml; assay type: functional, organism-based; settings: dose 80.0 µg/ml
[4] = system: Staphylococcus aureus; assay: Antibacterial activity against Staphylococcus aureus ATCC 43300 in presence of disulfiram; assay type: functional
[5] = system: Staphylococcus aureus; assay: Antibacterial activity against Staphylococcus aureus ATCC 43300; assay type: functional

SMILES: CC1=C[C@H](/C=C(\C)C[C@@H](O)[C@@H](O)/C=C/C(=O)O)[C@]2(O)C(=O)N[C@@H](CC(C)C)[C@@H]2[C@@H]1C
Activity [1]: inactive

SMILES: CC1=C[C@@H]2/C=C(\C)CCC(O)C(O)C(O)CC(=O)[C@]23C(=O)N[C@@H](CC(C)C)[C@@H]3[C@@H]1C (some centres undefined)
Activity [1]: inactive
pIC50 [2]: 5.51

SMILES: COC(=O)c1ccccc1NC(=O)[C@H](CC[S+](C)[O-])NC(=O)c1cnc2c(n1)c(=O)n(C)c(=O)n2C (some centres undefined)
Activity [1]: inactive

SMILES: COC(=O)[C@]1(Cc2ccc(O)c(CC=C(C)C)c2)OC(=O)C(OC)=C1c1ccc(O)cc1
Activity [1]: inactive

SMILES: Cn1c(=O)c2nc(C(=O)N[C@@H](CCC(N)=O)C(=O)Nc3ccccc3C(=O)O)cnc2n(C)c1=O
Activity [1]: inactive

SMILES: COC1=C(c2ccc(O)cc2)[C@@H](Cc2ccc(O)c(CC=C(C)C)c2)OC1=O
Activity [1]: inactive

MIC [4]: 10 µg/mL
SMILES: COC1=C(c2ccc(O)cc2)[C@@H](Cc2ccc(O)cc2)OC1=O
Activity [1]: inactive
Activity [3]: inactive

SMILES: O=C(N[C@H](CO)[C@H](O)c1ccc([N+](=O)[O-])cc1)C(Cl)Cl [CHLORAMPHENICOL]
MIC [5]: 6.25 µg/mL (≈ 19.3 µM)
MIC [4]: 2.5 µg/mL

SMILES: Cn1c(=O)c2nc(C(=O)N[C@@H](CO)C(=O)Nc3ccccc3C(=O)O)cnc2n(C)c1=O
Activity [1]: inactive

MIC [4]: 10 µg/mL
SMILES: CC(C)=CCc1cc([C@H](O)[C@@H]2NC(=O)CNC(=O)[C@H](C(C)C)NC(=O)CNC(=O)[C@@H]3CCCN3C(=O)[C@H](Cc3c[nH]c4ccccc34)NC(=O)CNC2=O)ccc1O (cyclo(GVG[X2]GWP))
Activity [1]: inactive
Activity [3]: inactive

SMILES: Cn1c(=O)c2nc(C(=O)N[C@@H](CC[S+](C)[O-])C(=O)Nc3ccccc3C(=O)O)cnc2n(C)c1=O (some centres undefined)
Activity [1]: inactive

pIC50 [2]: 4.99
MIC [4]: 10 µg/mL
SMILES: CC(C)[C@@H]1NC(=O)CNC(=O)[C@@H]2CCCN2C(=O)[C@H](Cc2c[nH]c3ccccc23)NC(=O)CNC(=O)[C@H]([C@@H](O)c2ccc(O)cc2)NC(=O)CNC1=O (cyclo(GVG[X1]GWP))
Activity [1]: inactive
Activity [3]: inactive

SMILES: [C-]#[N+]c1ccccc1NC(=O)[C@H](C)NC(=O)c1cnc2c(n1)c(=O)n(C)c(=O)n2C
Activity [1]: inactive

SMILES: C[C@H](O)C(=O)[C@@H](C)C/C=C/[C@H]1[C@@H]2O[C@]2(C)[C@@H](C)[C@H]2[C@H](Cc3ccccc3)NC(=O)[C@]21O
Activity [1]: inactive

SMILES: C[C@H](NC(=O)c1cnc2c(n1)c(=O)n(C)c(=O)n2C)C(=O)Nc1ccccc1C(=O)O
Activity [1]: inactive
